Consider 2 molecules from PMC9283420, “Conformational changes in the catalytic region are responsible for heat-induced activation of hyperthermophilic homoserine dehydrogenase” (Communications Biology, 2022).

In series [1] the target is T1, mature StHSD (heat-treated) (Sulfurisphaera tokodaii, UniProt F9VNG5).
T1 construct: gene hom; full length (residues 1-304 described), recombinant from plasmid pSTHSD in E. coli BL21, matured by heat treatment (343 K); homodimer
T1 sequence (F9VNG5 1-304): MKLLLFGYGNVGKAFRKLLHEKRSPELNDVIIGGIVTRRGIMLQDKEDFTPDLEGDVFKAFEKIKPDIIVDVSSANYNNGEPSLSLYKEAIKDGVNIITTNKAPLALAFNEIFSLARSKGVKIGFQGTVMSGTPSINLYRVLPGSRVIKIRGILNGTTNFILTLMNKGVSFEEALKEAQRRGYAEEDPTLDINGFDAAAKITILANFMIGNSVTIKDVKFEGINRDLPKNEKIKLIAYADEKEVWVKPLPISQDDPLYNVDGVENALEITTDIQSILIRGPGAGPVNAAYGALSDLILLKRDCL
Kind of series: initial velocity of NADH production at […] nm; Morrison fit. It counts as biochemical. Particulars: read-out: apparent Ki.

The target of series [2] is T2, immature StHSD (not heat-treated) (Sulfurisphaera tokodaii, UniProt F9VNG5).
T2 construct: gene hom; full length (residues 1-304 described), recombinant from plasmid pSTHSD in E. coli BL21 at 310 K, purified without heat treatment; homodimer with C303-C303 intersubunit disulfide (oxidized)
T2 sequence (F9VNG5 1-304): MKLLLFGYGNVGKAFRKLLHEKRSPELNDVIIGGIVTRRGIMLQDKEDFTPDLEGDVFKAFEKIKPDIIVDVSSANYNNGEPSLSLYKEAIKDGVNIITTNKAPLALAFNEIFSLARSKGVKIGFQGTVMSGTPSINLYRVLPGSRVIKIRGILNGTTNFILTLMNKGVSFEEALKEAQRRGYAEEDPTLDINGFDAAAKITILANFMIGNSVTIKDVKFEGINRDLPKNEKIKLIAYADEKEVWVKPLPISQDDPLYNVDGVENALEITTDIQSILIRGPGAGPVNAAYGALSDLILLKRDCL
The description is as above. It counts as biochemical. The following applies: read-out: apparent Ki.

Series [3] concerns the molecule itself. Kind of series: crystal structure; hanging-drop vapor diffusion at 295 K; immature enzyme as apo-form (IM) and with NADP+ and 1,4-butanediol (IM/NADP/BU); space group P2(1), two subunits in the asymmetric unit.

For the molecule `NC(=O)c1ccc[n+]([C@@H]2O[C@H](COP(=O)(O)OP(=O)(O)OC[C@H]3O[C@@H](n4cnc5c(N)ncnc54)[C@H](OP(=O)(O)O)[C@@H]3O)[C@@H](O)[C@H]2O)c1` [NADP^+], the values for the Ki in series [1] and in series [2] were 48 ± 1.2 µM and 26 ± 1.7 µM, respectively.

B1: homoserine dehydrogenase from the hyperthermophilic archaeon Sulfurisphaera tokodaii strain 7 (StHSD), immature enzyme (enzyme)
chain: MKLLLFGYGNVGKAFRKLLHEKRSPELNDVIIGGIVTRRGIMLQDKEDFTPDLEGDVFKAFEKIKPDIIVDVSSANYNNGEPSLSLYKEAIKDGVNIITTNKAPLALAFNEIFSLARSKGVKIGFQGTVMSGTPSINLYRVLPGSRVIKIRGILNGTTNFILTLMNKGVSFEEALKEAQRRGYAEEDPTLDINGFDAAAKITILANFMIGNSVTIKDVKFEGINRDLPKNEKIKLIAYADEKEVWVKPLPISQDDPLYNVDGVENALEITTDIQSILIRGPGAGPVNAAYGALSDLILLKRDCL
modifications: disulfide bond between the C303 residues of the two subunits
notes: homoserine dehydrogenase, Sulfurisphaera tokodaii strain 7; The same recombinant enzyme after heat treatment is called the mature enzyme (cited structures 4YDR, 5X9D); The IM/NADP/BU crystal form also holds NADP+ and 1,4-butanediol; also called immature StHSD; IM/NADP/BU; source: Blue Sepharose for the apo-form
The term stoichiometry N denotes the number of molecules, sites or subunits per partner or assembly. Take B1: the “stoichiometry N” value in series [3] was 2 subunits.
